Source: US11547697B2, “Heterocyclic compounds and uses thereof” (MILLENNIUM PHARMACEUTICALS, INC., priority 2009, dated 2023)

How the values were obtained:
p110α/p85α = p110α/p85α (Homo sapiens (Human), UniProt P42336); test: PI 3-Kinase (human) HTRF assay, p110α/p85α; format: biochemical; conditions: read-out: PI3K α IC50
p110β/p85α = p110β/p85α (Homo sapiens (Human), UniProt P42338); test: PI 3-Kinase (human) HTRF assay, p110β/p85α; format: biochemical; conditions: read-out: PI3K β IC50
p110δ/p85α = p110δ/p85α (Homo sapiens (Human), UniProt O00329); test: PI 3-Kinase (human) HTRF assay, p110δ/p85α; format: biochemical; conditions: read-out: PI3K δ IC50
p110γ = p110γ (Homo sapiens (Human), UniProt P48736); test: PI 3-Kinase (human) HTRF assay, p110γ; format: biochemical; conditions: read-out: PI3K γ IC50
[1] = system: tumor cells with a PI3Kα mutation (e.g., MDA-MB-361 and T47D); test: Proliferation of tumor cells with PI3Kα mutation; format: cell-based; conditions: Homo sapiens; T47D cells; read-out: T47D proliferation

p110α/p85α, sequence (P42336 whole entry): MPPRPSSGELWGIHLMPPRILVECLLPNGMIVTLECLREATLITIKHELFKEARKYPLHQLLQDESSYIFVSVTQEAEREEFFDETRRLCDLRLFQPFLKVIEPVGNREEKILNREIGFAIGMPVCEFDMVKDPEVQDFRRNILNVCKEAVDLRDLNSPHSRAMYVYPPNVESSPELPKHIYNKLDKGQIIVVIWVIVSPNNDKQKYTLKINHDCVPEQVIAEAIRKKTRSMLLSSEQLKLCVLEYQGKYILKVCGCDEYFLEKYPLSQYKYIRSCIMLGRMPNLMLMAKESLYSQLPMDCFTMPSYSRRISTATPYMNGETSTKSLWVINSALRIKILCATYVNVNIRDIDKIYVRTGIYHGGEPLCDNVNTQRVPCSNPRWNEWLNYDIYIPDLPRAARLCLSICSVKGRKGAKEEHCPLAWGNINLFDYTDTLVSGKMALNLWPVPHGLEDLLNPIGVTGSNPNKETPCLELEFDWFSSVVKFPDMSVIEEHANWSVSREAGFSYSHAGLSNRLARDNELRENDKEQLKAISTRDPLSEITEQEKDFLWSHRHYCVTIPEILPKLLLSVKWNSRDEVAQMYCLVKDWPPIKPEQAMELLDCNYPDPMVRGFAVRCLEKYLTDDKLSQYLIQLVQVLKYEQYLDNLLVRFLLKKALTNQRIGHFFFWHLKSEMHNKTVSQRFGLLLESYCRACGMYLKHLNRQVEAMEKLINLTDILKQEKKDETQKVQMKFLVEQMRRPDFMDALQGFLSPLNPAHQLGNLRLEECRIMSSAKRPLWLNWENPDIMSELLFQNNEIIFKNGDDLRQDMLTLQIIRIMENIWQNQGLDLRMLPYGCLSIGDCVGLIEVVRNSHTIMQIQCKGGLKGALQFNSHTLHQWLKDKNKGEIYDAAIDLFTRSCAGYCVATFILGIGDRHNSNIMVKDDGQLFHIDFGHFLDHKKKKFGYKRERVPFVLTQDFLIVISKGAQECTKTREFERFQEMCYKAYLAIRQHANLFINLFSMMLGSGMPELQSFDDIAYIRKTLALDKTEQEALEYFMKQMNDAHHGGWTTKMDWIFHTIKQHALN
p110α/p85α, sequence (P27986 whole entry partner): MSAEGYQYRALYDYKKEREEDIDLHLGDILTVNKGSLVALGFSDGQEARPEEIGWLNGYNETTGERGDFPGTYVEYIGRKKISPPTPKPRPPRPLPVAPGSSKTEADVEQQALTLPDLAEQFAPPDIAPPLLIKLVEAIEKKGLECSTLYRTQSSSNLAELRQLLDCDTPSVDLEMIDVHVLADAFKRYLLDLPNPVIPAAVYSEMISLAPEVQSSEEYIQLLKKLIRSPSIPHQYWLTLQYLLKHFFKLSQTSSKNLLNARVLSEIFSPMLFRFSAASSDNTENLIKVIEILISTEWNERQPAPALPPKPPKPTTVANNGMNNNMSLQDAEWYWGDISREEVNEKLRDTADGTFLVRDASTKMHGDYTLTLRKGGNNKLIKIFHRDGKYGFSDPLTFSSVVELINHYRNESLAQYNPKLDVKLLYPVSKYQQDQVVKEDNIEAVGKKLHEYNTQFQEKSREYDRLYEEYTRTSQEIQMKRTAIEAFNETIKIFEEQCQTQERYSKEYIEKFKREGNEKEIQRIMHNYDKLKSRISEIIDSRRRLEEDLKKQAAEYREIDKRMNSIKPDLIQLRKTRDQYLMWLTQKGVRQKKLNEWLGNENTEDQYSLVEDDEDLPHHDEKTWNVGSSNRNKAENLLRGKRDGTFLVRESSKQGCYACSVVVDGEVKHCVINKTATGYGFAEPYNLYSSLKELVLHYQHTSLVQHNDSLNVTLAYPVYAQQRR
p110δ/p85α, sequence (O00329 whole entry): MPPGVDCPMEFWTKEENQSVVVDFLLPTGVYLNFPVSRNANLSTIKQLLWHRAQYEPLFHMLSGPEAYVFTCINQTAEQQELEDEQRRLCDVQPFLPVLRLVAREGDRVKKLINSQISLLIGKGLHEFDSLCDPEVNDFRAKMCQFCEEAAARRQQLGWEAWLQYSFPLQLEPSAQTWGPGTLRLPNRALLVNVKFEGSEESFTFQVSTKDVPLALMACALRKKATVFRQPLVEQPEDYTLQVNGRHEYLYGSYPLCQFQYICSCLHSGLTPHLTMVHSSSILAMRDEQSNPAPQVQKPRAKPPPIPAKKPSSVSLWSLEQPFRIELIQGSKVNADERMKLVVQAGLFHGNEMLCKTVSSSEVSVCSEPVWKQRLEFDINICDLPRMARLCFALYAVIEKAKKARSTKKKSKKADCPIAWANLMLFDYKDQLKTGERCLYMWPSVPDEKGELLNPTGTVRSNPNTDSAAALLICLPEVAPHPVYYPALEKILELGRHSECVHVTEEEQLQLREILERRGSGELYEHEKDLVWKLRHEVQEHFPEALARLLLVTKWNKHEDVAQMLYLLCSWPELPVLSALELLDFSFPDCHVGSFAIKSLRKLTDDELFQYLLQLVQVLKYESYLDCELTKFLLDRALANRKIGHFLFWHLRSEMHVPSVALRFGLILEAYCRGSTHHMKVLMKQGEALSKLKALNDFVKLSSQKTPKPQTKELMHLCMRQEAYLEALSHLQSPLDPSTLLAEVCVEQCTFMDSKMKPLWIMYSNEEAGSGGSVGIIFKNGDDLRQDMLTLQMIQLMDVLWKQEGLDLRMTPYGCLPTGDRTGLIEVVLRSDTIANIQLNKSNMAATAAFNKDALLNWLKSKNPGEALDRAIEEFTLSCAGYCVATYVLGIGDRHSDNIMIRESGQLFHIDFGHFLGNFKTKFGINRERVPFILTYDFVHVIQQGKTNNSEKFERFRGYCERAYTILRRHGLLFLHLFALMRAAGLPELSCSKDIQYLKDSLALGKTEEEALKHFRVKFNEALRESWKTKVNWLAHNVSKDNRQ
p110δ/p85α, sequence (P27986 whole entry partner): as the sequence (P27986 whole entry partner) above
p110γ, sequence (P48736 whole entry): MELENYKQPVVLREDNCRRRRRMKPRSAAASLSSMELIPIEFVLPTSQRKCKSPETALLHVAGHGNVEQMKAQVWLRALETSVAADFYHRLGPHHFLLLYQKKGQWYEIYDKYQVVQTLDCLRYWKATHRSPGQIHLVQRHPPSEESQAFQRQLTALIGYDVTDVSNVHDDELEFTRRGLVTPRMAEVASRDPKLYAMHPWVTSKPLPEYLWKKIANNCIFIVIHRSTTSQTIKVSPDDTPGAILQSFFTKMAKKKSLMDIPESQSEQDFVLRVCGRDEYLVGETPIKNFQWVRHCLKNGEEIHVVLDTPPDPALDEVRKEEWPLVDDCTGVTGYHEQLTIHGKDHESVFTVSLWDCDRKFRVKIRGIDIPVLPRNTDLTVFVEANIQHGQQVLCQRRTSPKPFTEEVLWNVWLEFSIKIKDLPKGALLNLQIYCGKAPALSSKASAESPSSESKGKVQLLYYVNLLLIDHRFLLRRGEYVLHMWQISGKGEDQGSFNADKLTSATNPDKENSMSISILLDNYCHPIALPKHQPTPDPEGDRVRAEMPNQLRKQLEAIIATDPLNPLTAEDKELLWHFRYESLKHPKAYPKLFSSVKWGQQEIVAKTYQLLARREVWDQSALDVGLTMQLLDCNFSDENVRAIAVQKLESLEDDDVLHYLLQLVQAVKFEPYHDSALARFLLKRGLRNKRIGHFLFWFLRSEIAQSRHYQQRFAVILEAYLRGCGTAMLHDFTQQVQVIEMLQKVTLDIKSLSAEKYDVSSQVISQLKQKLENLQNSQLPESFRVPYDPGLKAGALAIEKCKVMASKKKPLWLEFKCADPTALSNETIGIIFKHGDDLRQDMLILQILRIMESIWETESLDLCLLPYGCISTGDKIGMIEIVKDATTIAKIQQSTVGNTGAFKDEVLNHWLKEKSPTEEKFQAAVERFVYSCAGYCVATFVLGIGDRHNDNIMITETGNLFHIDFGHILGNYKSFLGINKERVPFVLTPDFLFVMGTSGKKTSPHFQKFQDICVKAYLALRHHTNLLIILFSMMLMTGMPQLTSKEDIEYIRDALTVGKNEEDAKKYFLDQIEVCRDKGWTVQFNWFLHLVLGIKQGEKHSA
p110β/p85α, sequence (P42338 whole entry): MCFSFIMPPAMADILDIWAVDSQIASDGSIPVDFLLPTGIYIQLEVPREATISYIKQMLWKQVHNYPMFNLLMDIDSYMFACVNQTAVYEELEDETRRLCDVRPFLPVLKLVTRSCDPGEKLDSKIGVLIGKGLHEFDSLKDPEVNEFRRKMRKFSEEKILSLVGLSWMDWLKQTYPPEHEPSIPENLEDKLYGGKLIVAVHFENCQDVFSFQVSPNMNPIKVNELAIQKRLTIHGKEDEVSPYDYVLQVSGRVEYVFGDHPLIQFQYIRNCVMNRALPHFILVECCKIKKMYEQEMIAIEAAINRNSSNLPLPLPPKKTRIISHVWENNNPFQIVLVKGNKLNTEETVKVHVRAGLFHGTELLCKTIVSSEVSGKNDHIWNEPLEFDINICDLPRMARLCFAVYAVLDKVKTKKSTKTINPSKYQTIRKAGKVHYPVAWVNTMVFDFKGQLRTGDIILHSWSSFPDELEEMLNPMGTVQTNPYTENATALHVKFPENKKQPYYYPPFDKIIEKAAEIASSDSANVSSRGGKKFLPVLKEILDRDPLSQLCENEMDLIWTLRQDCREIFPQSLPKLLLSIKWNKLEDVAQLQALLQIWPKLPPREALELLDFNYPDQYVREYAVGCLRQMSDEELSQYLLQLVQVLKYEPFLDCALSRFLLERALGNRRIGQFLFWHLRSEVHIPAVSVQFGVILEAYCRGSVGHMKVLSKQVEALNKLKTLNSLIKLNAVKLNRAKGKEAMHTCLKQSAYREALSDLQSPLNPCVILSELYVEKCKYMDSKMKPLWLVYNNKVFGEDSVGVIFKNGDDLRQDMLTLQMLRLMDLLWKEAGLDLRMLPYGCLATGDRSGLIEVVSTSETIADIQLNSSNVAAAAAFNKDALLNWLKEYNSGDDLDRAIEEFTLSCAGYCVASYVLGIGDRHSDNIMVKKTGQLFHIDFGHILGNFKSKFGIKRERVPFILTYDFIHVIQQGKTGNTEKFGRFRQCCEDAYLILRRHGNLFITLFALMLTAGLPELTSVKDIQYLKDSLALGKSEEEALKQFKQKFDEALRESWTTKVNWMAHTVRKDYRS
p110β/p85α, sequence (P27986 whole entry partner): as the sequence (P27986 whole entry partner) above

Compound: Nc1noc2cc(-c3ccc4nccc(-c5ccncc5)c4c3)ccc12 [compound 16]
- IC50 (p110α/p85α): < 0.1 µM
- IC50 (p110β/p85α): < 10 µM
- IC50 (p110δ/p85α): < 10 µM
- IC50 (p110γ): < 1 µM
- IC50 [1]: < 1 µM

Compound: CN1CCN(c2ccc(-c3cnc4ccc(-c5ccc6oc(N)nc6c5)cn34)cn2)CC1 [compound 42]
- IC50 (p110α/p85α): < 0.1 µM
- IC50 (p110δ/p85α): < 1 µM
- IC50 (p110γ): < 1 µM
- IC50 [1]: < 10 µM

Compound: Nc1nc2cc(-c3ccc4ncc(-c5ccc6nc(N)oc6c5)n4c3)ccc2o1 [compound 50]
- IC50 (p110α/p85α): < 0.1 µM
- IC50 (p110δ/p85α): < 10 µM
- IC50 (p110γ): < 0.1 µM
- IC50 [1]: < 10 µM

Compound: CN1CCN(c2cnc3ccc(-c4ccc5oc(N)nc5c4)cc3n2)CC1 [compound 65]
- IC50 (p110α/p85α): < 0.1 µM
- IC50 (p110β/p85α): < 0.1 µM
- IC50 (p110δ/p85α): < 10 µM
- IC50 (p110γ): < 1 µM
- IC50 [1]: < 10 µM

Compound: CC(C)N1CCN(c2cnc3ccc(-c4ccc5oc(N)nc5c4)cc3n2)CC1 [compound 84]
- IC50 (p110α/p85α): < 0.1 µM
- IC50 (p110β/p85α): < 0.1 µM
- IC50 (p110δ/p85α): < 1 µM
- IC50 (p110γ): < 0.1 µM
- IC50 [1]: < 10 µM

Compound: Nc1nc2cc(-c3ccc4ncc(N5CCNCC5)nc4c3)ccc2o1 [compound 88]
- IC50 (p110α/p85α): < 0.1 µM
- IC50 (p110β/p85α): < 0.1 µM
- IC50 (p110δ/p85α): < 10 µM
- IC50 (p110γ): < 1 µM
- IC50 [1]: < 10 µM

Compound: CS(=O)(=O)CCN1CCN(c2cnc3ccc(-c4ccc5oc(N)nc5c4)cc3n2)CC1 [compound 90]
- IC50 (p110α/p85α): < 0.1 µM
- IC50 (p110β/p85α): < 1 µM
- IC50 (p110δ/p85α): < 10 µM
- IC50 (p110γ): < 1 µM
- IC50 [1]: < 1 µM

Compound: Nc1nc2cc(-c3ccc4ncc(NC5CCOCC5)nc4c3)ccc2o1 [compound 96]
- IC50 (p110α/p85α): < 0.1 µM
- IC50 (p110β/p85α): < 10 µM
- IC50 (p110δ/p85α): < 1 µM
- IC50 (p110γ): < 0.1 µM
- IC50 [1]: < 1 µM

Compound: Nc1nc2cc(-c3ccc4ncc(N5CCC(O)CC5)nc4c3)ccc2o1 [compound 99]
- IC50 (p110α/p85α): < 0.1 µM
- IC50 (p110β/p85α): < 10 µM
- IC50 (p110δ/p85α): < 1 µM
- IC50 (p110γ): < 1 µM
- IC50 [1]: < 10 µM

Compound: Nc1nc2cc(-c3ccc4ncc(N5CCN(CCO)CC5)nc4c3)ccc2o1 [compound 100]
- IC50 (p110α/p85α): < 0.1 µM
- IC50 (p110β/p85α): < 0.1 µM
- IC50 (p110δ/p85α): < 10 µM
- IC50 (p110γ): < 1 µM
- IC50 [1]: < 1 µM

Compound: CC(C)N1CCC(Nc2ncnc3ccc(-c4ccc5oc(N)nc5c4)cc23)CC1 [compound 101]
- IC50 (p110α/p85α): < 0.1 µM
- IC50 (p110β/p85α): < 10 µM
- IC50 (p110δ/p85α): < 1 µM
- IC50 (p110γ): < 10 µM
- IC50 [1]: < 10 µM

Compound: CN(C)CC(=O)N1CCC(Nc2ncnc3ccc(-c4ccc5oc(N)nc5c4)cc23)CC1 [compound 103]
- IC50 (p110α/p85α): < 0.1 µM
- IC50 (p110β/p85α): < 1 µM
- IC50 (p110δ/p85α): < 1 µM
- IC50 (p110γ): < 1 µM
- IC50 [1]: < 10 µM

Compound: Nc1nc2cc(-c3ccc4ncc(-c5cnn(CCO)c5)nc4c3)ccc2o1 [compound 108]
- IC50 (p110α/p85α): < 0.1 µM
- IC50 (p110β/p85α): < 10 µM
- IC50 (p110γ): < 0.1 µM
- IC50 [1]: < 1 µM

Compound: CS(=O)(=O)N1CCN(C(=O)c2cnc3ccc(-c4ccc5oc(N)nc5c4)cn23)CC1 [compound 112]
- IC50 (p110α/p85α): < 0.1 µM
- IC50 (p110δ/p85α): < 10 µM
- IC50 (p110γ): < 1 µM
- IC50 [1]: < 1 µM

Compound: CC(=O)N1CCN(C(=O)c2cnc3ccc(-c4ccc5oc(N)nc5c4)cn23)CC1 [compound 113]
- IC50 (p110α/p85α): < 0.1 µM
- IC50 (p110γ): < 1 µM
- IC50 [1]: < 10 µM

Compound: CN1CCN(c2cnc3ccc(-c4ccc5nc(N)sc5c4)cc3n2)CC1 [compound 115]
- IC50 (p110α/p85α): < 0.1 µM
- IC50 (p110β/p85α): < 0.1 µM
- IC50 (p110γ): < 10 µM
- IC50 [1]: < 10 µM

Compound: Nc1nc2cc(-c3ccc4ncc(N5CCOCC5)nc4c3)ccc2s1 [compound 116]
- IC50 (p110α/p85α): < 0.1 µM
- IC50 (p110β/p85α): < 1 µM
- IC50 (p110γ): < 1 µM
- IC50 [1]: < 1 µM

Compound: Nc1nc2ccc(-c3ccc4ncc(N5CCOCC5)nc4c3)cc2o1 [compound 117]
- IC50 (p110α/p85α): < 0.1 µM
- IC50 (p110β/p85α): < 1 µM
- IC50 (p110γ): < 1 µM
- IC50 [1]: < 10 µM

Compound: CNC(=O)CN1CCN(c2cnc3ccc(-c4ccc5oc(N)nc5c4)cc3n2)CC1 [compound 120]
- IC50 (p110α/p85α): < 0.1 µM
- IC50 (p110β/p85α): < 1 µM
- IC50 (p110δ/p85α): < 10 µM
- IC50 [1]: < 1 µM

Compound: Nc1nc2cc(-c3ccc4ncc(N5CCN(C(=O)[C@@H]6CCCN6)CC5)nc4c3)ccc2o1 [compound 121]
- IC50 (p110α/p85α): < 0.1 µM
- IC50 (p110β/p85α): < 0.1 µM
- IC50 (p110δ/p85α): < 0.1 µM
- IC50 (p110γ): < 0.1 µM
- IC50 [1]: < 1 µM

Compound: Nc1nc2cc(-c3ccc4ncc(NCCN5CCOCC5)nc4c3)ccc2o1 [compound 133]
- IC50 (p110α/p85α): < 0.1 µM
- IC50 (p110β/p85α): < 1 µM
- IC50 (p110δ/p85α): < 1 µM
- IC50 (p110γ): < 1 µM
- IC50 [1]: < 10 µM

Compound: CC(N)C(=O)N1CCN(c2cnc3ccc(-c4ccc5oc(N)nc5c4)cc3n2)CC1 (centres unmarked) [compound 134]
- IC50 (p110α/p85α): < 0.1 µM
- IC50 (p110β/p85α): < 1 µM
- IC50 (p110δ/p85α): < 1 µM
- IC50 (p110γ): < 10 µM
- IC50 [1]: < 1 µM

Compound: Nc1nc2cc(-c3ccc4ncc(N5CCNC(=O)C5)nc4c3)ccc2o1 [compound 135]
- IC50 (p110α/p85α): < 0.1 µM
- IC50 (p110β/p85α): < 1 µM
- IC50 (p110γ): < 1 µM
- IC50 [1]: < 1 µM
